ChEMBL document CHEMBL5034000, “Novel Bisubstrate Inhibitors for Protein N-Terminal Acetyltransferase D” (J Med Chem, 2021)
Active and inactive are the calls of the source. No cut-off for these calls is given here. Where a SMILES comes first, the peptide text is derived from it. [ ]: non-standard residue; d: D form. The star is where a group is joined. X2 = CC(C)(COP(=O)(O)OP(=O)(O)OC[C@H]1O[C@@H](n2cnc3c(N)ncnc32)[C@H](OP(=O)(O)O)[C@@H]1O)C(O)C(=O)NCCC(=O)NCC*; Mpa = O=C(O)CCS

Assays:
[1] = molecular target: N-alpha-acetyltransferase 40 (Homo sapiens) (UniProt Q86UY6); assay: Non-competitive inhibition of human NatD using various concentration of [14C]acetyl-CoA and fixed human H4 peptide as substrate measured after 13 mins radioactive assay
Homo sapiens [2] = organism: Homo sapiens; assay: Selectivity ratio of inhibition of human NatA to inhibition of human NatD
Homo sapiens [3] = organism: Homo sapiens; assay: Selectivity ratio of inhibition of human MOF to inhibition of human NatD
[4] = Drug uptake in digitonin treated human HCT116 cells measured at 100 uM after 2 hrs of incubation by MALDI-MS; assay type: ADME, cell-based; settings: hct-116, 2 h
Homo sapiens [5] = organism: Homo sapiens; assay: Inhibition of human NatA using AcCoA and H4 peptide as substrate at 1 uM incubated for 12 min at room temperature relative to control
[6] = molecular target: N-alpha-acetyltransferase 40 (Homo sapiens) (UniProt Q86UY6); settings: HCT-116, Lysate, dose 100.0 µM, time 2.0 hrs
[7] = tested on: NatC (Schizosaccharomyces pombe); assay: Selectivity ratio of inhibition of Schizosaccharomyces pombe NatC to inhibition of human NatD
[8] = molecular target: Histone acetyltransferase KAT2B (Homo sapiens) (UniProt Q92831); assay: Inhibition of human PCAF using AcCoA and H4 peptide as substrate at 10 uM incubated for 20 min at room temperature
Homo sapiens [9] = organism: Homo sapiens; assay: Inhibition of human NatB using AcCoA and MDVF peptide as substrate at 10 uM incubated for 10 min at room temperature
[10] = molecular target: T1, N-alpha-acetyltransferase 50 (Homo sapiens) (UniProt Q9GZZ1); assay: Inhibition of human NatE using AcCoA and MLGP peptide as substrate at 10 uM incubated for 40 min at room temperature
T1 sequence (whole entry): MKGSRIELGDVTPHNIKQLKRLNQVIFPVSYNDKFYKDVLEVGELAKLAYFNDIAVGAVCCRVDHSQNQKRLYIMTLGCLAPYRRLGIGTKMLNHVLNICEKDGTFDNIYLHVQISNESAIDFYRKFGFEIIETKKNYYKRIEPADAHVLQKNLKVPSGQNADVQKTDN

[11] = molecular target: T2, Histone acetyltransferase KAT8 (Homo sapiens) (UniProt Q9H7Z6); assay: Inhibition of human MOF using AcCoA and H4 peptide as substrate at 1 uM incubated for 20 min at room temperature relative to control
T2 sequence (whole entry): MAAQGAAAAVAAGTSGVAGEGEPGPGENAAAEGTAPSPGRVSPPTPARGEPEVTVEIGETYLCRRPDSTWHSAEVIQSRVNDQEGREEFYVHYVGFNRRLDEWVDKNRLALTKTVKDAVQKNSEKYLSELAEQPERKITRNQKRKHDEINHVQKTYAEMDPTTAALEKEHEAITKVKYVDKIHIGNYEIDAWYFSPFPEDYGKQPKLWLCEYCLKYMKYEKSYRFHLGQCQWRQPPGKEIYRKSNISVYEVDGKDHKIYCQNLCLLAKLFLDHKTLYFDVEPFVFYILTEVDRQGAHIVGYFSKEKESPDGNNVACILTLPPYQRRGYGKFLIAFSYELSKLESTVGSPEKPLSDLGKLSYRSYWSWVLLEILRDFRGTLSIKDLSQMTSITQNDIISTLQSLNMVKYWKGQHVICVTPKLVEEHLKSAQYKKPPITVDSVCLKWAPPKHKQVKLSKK

[12] = tested on: NatC (Schizosaccharomyces pombe); assay: Inhibition of Schizosaccharomyces pombe NatC using AcCoA and MLRF peptide as substrate at 10 uM incubated for 5 min at room temperature

Chain of Histone acetyltransferase KAT2B (Homo sapiens) (Q92831 whole entry, looked up): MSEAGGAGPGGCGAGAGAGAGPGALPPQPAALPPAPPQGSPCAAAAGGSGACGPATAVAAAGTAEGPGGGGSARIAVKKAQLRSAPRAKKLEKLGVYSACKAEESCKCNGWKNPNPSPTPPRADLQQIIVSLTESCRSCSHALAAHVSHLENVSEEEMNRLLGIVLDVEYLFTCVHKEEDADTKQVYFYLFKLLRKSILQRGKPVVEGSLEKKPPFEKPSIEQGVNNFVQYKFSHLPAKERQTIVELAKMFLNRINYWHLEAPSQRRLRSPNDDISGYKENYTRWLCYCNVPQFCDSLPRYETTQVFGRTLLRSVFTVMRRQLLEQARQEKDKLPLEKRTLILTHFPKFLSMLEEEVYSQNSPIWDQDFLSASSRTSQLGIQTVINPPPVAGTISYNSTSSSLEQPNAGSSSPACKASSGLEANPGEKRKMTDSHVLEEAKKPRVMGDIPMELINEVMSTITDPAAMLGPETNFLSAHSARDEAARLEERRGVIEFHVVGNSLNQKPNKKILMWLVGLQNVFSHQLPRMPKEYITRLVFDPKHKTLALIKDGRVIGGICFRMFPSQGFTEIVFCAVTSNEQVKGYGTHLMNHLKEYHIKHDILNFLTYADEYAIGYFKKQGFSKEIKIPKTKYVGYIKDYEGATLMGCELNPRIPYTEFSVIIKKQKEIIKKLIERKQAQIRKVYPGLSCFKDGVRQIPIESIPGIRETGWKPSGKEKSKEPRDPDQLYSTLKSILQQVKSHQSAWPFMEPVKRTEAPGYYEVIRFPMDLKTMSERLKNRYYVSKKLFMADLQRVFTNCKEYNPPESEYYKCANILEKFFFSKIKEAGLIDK

CC(C)(COP(=O)(O)OP(=O)(O)OC[C@H]1O[C@@H](n2cnc3c(N)ncnc32)[C@H](OP(=O)(O)O)[C@@H]1O)C(O)C(=O)NCCC(=O)NCCSCCC(=O)N[C@@H](CO)C(=O)NCC(=O)N[C@@H](CCCNC(=N)N)C(=O)NCC(=O)N[C@@H](CCCCN)C(N)=O (stereo partly drawn) ([Mpa](X2)SGRGK-NH2)
alphaKi [1]: 2.1 nM
Selectivity ratio (Homo sapiens [2]): 1000
Selectivity ratio (Homo sapiens [3]): 1000
Drug uptake [4]: Active
inhibition (Homo sapiens [5]): 10%
deltaT [6]: 1.7 °C
Selectivity ratio [7]: 10000
inhibition [8]: inactive
inhibition (Homo sapiens [9]): inactive
inhibition [10]: inactive
inhibition [11]: 10%
inhibition [12]: inactive

CC(C)(COP(=O)(O)OP(=O)(O)OC[C@H]1O[C@@H](n2cnc3c(N)ncnc32)[C@H](OP(=O)(O)O)[C@@H]1O)C(O)C(=O)NCCC(=O)NCCSCCC(=O)N[C@@H](CO)C(=O)NCC(=O)N[C@@H](CCCNC(=N)N)C(=O)NCC(N)=O (stereo partly drawn)
Drug uptake [4]: Active
